From patent publication US20080125432A1 (Devgen NV, priority 2004, published 2008)
pIC50: −log10 of the molar value. Read-outs that look alike come from different tables or passages of the source.

Biological target: T1, human Kv4.3/KChIP2.2 potassium channel (Homo sapiens, UniProt Q9UK17)
T1 construct: expressed in transfected cells
T1 sequence (Q9UK17 1-655): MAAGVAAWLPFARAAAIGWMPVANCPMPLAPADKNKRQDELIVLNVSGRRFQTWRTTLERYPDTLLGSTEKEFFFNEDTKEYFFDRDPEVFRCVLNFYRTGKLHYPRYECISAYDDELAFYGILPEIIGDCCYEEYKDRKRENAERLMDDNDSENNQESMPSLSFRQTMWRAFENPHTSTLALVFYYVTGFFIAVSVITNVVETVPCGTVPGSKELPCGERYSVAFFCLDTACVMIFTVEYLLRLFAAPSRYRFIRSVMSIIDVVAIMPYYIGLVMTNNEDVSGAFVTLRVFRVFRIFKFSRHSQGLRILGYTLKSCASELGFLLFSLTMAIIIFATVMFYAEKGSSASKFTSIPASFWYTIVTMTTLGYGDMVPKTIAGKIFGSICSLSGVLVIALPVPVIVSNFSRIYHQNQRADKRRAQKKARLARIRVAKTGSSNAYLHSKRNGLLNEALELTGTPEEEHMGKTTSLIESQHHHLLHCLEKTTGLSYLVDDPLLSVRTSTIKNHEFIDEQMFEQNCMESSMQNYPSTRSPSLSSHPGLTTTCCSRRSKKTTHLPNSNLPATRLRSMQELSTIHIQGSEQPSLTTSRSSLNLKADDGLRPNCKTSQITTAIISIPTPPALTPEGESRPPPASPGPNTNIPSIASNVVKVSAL
Assay: Whole cell patch clamp, CHO-K1 cells stably expressing human Kv4.3/KChIP2.2
Assay type: cell-based
Conditions: for pIC50: Kv4.3 mediated current, charge, patch clamp, read-out: Kv4.3 charge IC50; for IC50: estimated by Hill fit with hill=1, ymax=100, tested at 2 μM, n=2, read-out: IC50 (μM) Kv4.3; for remaining activity at 1 µM: CHO-K1

[1] = remaining current measured after application of the compound and relative to the blank, read-out: Kv4.3 charge in %
[2] = remaining peak height measured after application of the compound and relative to the blank, read-out: Kv4.3 peak in %

Row | pIC50 | IC50 | remaining activity at 1 µM [1] | remaining activity at 1 µM [2] | Compound
1 | 6.47 | 0.34 µM | – | – | 2-(4-bromo-phenylamino)-4-methyl-thiazole-5-carboxylic acid 1,2,3,4-tetrahydroisoquinolinamide [Compound 66]
2 | – | 1.84 µM | – | – | Cc1nc(Nc2ccc(F)cc2)sc1C(=O)N[C@H](C)c1ccc2ccccc2c1 [Compound 16, 2-(4-fluoro-phenylamino)-4-methyl-thiazole-5-carboxylic acid (R)-1-(naphthalen-2-yl)ethyl amide]
3 | – | 3.85 µM | – | – | Cc1nc(Nc2ccc(Br)cc2)sc1C(=O)N[C@@H](C)c1ccc2ccccc2c1 [Compound 18, 2-(4-bromo-phenylamino)-4-methyl-thiazole-5-carboxylic acid (S)-1-(naphthalen-2-yl)ethyl amide]
4 | – | 2.72 µM | – | – | Cc1nc(Nc2ccc(Br)cc2)sc1C(=O)N[C@H](C)c1ccc2ccccc2c1 [Compound 19, 2-(4-bromo-phenylamino)-4-methyl-thiazole-5-carboxylic acid (R)-1-(naphthalen-2-yl)ethyl amide]
5 | 5.90 | 1.25 µM | – | – | Cc1nc(Nc2ccc(Cl)cc2)sc1C(=O)N[C@@H]1CCC[C@H]1OCc1ccccc1 [Compound 30, 2-(4-chloro-phenylamino)-4-methyl-thiazole-5-carboxylic acid (1R,2R)-2-(benzyloxycyclopent-1-yl) amide]
6 | – | 2.91 µM | – | – | COc1ccccc1Nc1nc(C)c(C(=O)N[C@@H]2CCC[C@H]2OCc2ccccc2)s1 [Compound 31, 2-(2-methoxy-phenylamino)-4-methyl-thiazole-5-carboxylic acid (1R,2R)-2-(benzyloxycyclopent-1-yl) amide]
7 | – | 3.35 µM | – | – | COc1ccc(OC)c(Nc2nc(C)c(C(=O)N[C@@H]3CCC[C@H]3OCc3ccccc3)s2)c1 [Compound 33, 2-(2,5-dimethoxyphenylamino)-4-methylthiazole-5-carboxylic acid (1R,2R)-2-(benzyloxycyclopent-1-yl) amide]
8 | – | 1.62 µM | – | – | COc1cccc([C@@H](C)NC(=O)c2sc(Nc3cc(Cl)ccc3OC)nc2C)c1 [Compound 34]
9 | 6.47 | 0.34 µM | – | – | Cc1nc(Nc2ccc(Cl)cc2)sc1C(=O)N[C@H](C)c1ccc2ccccc2c1 [Compound 52, 2-(4-chloro-phenylamino)-4-methyl-thiazole-5-carboxylic acid (R)-1-(2-naphtalen-2-yl-ethyl)-amide]
10 | 5.62 | 2.41 µM | – | – | Cc1nc(Nc2ccc(Cl)cc2)sc1C(=O)N[C@@H](C)c1ccc2ccccc2c1 [Compound 54, 2-(4-chloro-phenylamino)-4-methyl-thiazole-5-carboxylic acid (S)-1-(2-naphtalen-2-yl-ethyl)-amide]
11 | – | 2.02 µM | – | – | COc1ccccc1Nc1nc(C)c(C(=O)N[C@@H](C)c2ccc3ccccc3c2)s1 [Compound 55, 2-(2-methoxy-phenylamino)-4-methyl-thiazole-5-carboxylic acid (S)-1-(2-naphtalen-2-yl-ethyl)-amide]
12 | 5.97 | 1.07 µM | – | – | Cc1nc(Nc2ccc(Br)cc2)sc1C(=O)NCc1cccc2ccccc12 [Compound 56, 2-(4-bromo-phenylamino)-4-methyl-thiazole-5-carboxylic acid (naphtalen-1-yl-methyl)-amide]
13 | – | 0.39 µM | – | – | COc1ccc(CNC(=O)c2sc(Nc3ccc(Br)cc3)nc2C)cc1 [Compound 60, 2-(4-bromo-phenylamino)-4-methyl-thiazole-5-carboxylic acid 4-methoxy-benzylamide]
14 | – | 0.16 µM | – | – | Cc1nc(Nc2ccc(Br)cc2)sc1C(=O)NCc1ccc(F)c(C(F)(F)F)c1 [Compound 63, 2-(4-bromo-phenylamino)-4-methyl-thiazole-5-carboxylic acid 4-fluoro-3-trifluoromethyl-benzylamide]
15 | – | 0.83 µM | – | – | Cc1nc(Nc2ccc(Br)cc2)sc1C(=O)NCc1ccc(N(C)C)cc1 [Compound 64, 2-(4-bromo-phenylamino)-4-methyl-thiazole-5-carboxylic acid 4-dimethylamino-benzylamide]
16 | – | 0.18 µM | – | – | COc1cc(CNC(=O)c2sc(Nc3ccc(Br)cc3)nc2C)cc(OC)c1 [Compound 65, 2-(4-bromo-phenylamino)-4-methyl-thiazole-5-carboxylic acid 3,5-dimethoxy-benzylamide]

Row | pIC50 | IC50 | remaining activity at 1 µM [1] | remaining activity at 1 µM [2] | Compound
17 | – | 0.54 µM | – | – | COc1ccccc1Nc1nc(C)c(C(=O)N[C@H]2CCC[C@@H]2OCc2ccccc2)s1 [Compound 68, 2-(2-methoxy-phenylamino)-4-methyl-thiazole-5-carboxylic acid (1S,2S)-2-(benzyloxycyclopent-1-yl) amide]
18 | – | – | 41% | 81% | COc1ccccc1Nc1ccc(C(=O)N[C@H]2CCC[C@@H]2OCc2ccccc2)s1 [Compound 75, 2-(2-methoxy-phenylamino)-thiophene-5-carboxylic acid ((1S,2S)-2-benzyloxycyclopent-1-yl) amide]
19 | – | – | 62% | 99% | COc1ccccc1Nc1nccc(C(=O)N[C@H]2CCC[C@@H]2OCc2ccccc2)n1 [Compound 76, 2-(2-methoxy-phenylamino)-pyrimidine-4-carboxylic acid ((1S,2S)-2-benzyloxycyclopent-1-yl) amide]
20 | – | – | 51% | 90% | Cc1nc(Sc2ccccc2)sc1C(=O)N[C@H]1CCC[C@@H]1OCc1ccccc1 [Compound 81, 4-methyl-2-phenylsulfanyl-thiazole-5-carboxylic acid ((1S,2S)-2-benzyloxycyclopent-1-yl) amide]
21 | – | – | 62% | 89% | Cc1nc(Nc2cccc3ccccc23)sc1C(=O)N[C@H]1CCC[C@@H]1OCc1ccccc1 [Compound 93]
22 | – | – | 49% | 89% | Cc1nc(Nc2cccc3cccnc23)sc1C(=O)N[C@H]1CCC[C@@H]1OCc1ccccc1 [Compound 94, 4-methyl-2-(quinolin-8-ylamino)-thiazole-5-carboxylic acid ((1S,2S)-2-benzyloxycyclopent-1-yl) amide]
23 | – | – | 61% | 91% | Cc1nc(Nc2ccc3c(c2)OCCO3)sc1C(=O)N[C@H]1CCC[C@@H]1OCc1ccccc1 [Compound 95]
24 | – | – | 66% | 96% | COc1ccccc1Nc1nc(C)c(C(=O)NCc2ccccc2SC)s1 [Compound 97]
25 | – | – | 59% | 90% | COc1ccccc1Nc1nc(C)c(C(=O)NCc2c(C)cccc2Cl)s1 [Compound 98, 2-(2-methoxy-phenylamino)-4-methyl-thiazole-5-carboxylic acid 2-chloro-6-methyl-benzylamide]
26 | – | – | 77% | 93% | COc1ccccc1Nc1nc(C)c(C(=O)NCc2ccc3c(c2)CCO3)s1 [Compound 104, 2-(2-methoxy-phenylamino)-4-methyl-thiazole-5-carboxylic acid (2,3-dihydro-benzofuran-5-ylmethyl)-amide]
27 | – | – | 61% | 77% | COc1ccccc1Nc1nc(C)c(C(=O)NCc2ccc(N(C)C)cc2)s1 [Compound 105, 2-(2-methoxy-phenylamino)-4-methyl-thiazole-5-carboxylic acid 4-dimethylamino-benzylamide]
28 | – | – | 58% | 98% | COc1ccccc1Nc1nc(C)c(C(=O)NCc2ccc(C(C)(C)C)cc2)s1 [Compound 106, 2-(2-methoxy-phenylamino)-4-methyl-thiazole-5-carboxylic acid 4-tert-butyl-benzylamide]
29 | – | – | 59% | 82% | COc1ccccc1Nc1nc(C)c(C(=O)NCc2ccc(Br)cc2)s1 [Compound 108, 2-(2-methoxy-phenylamino)-4-methyl-thiazole-5-carboxylic acid 4-bromo-benzylamide]
30 | – | – | 58% | 89% | Cc1nc(Nc2ccc3occc3c2)sc1C(=O)N[C@H]1CCC[C@@H]1OCc1ccccc1 [Compound 126, 2-(benzofuran-5-ylamino)-4-methyl-thiazole-5-carboxylic acid ((1S,2S)-2-benzyloxycyclopent-1-yl) amide]
31 | – | – | 73% | 97% | Cc1nc(NC(=O)c2ccc(C(C)(C)C)cc2)sc1C(=O)N[C@H]1CCC[C@@H]1OCc1ccccc1 [Compound 180, 2-(4-tert-butyl-benzoylamino)-4-methyl-thiazole-5-carboxylic acid ((1S,2S)-2-benzyloxycyclopent-1-yl) amide]
